# Assay: in vitro
# Conditions: human, hela cells, % viability
Structure (SMILES),"viability at 28.5 h, 10 µM","viability at 28.5 h, 10 µM (bulk resorufin, single well)"
CCCOC1CCCN(Cc2cn(CC(N)=O)c3ccccc23)C1 (stereo not shown) [CBK282796],105%,–
OCCCn1c(-c2ccc(Cl)cc2)cn2c3ccccc3nc12 [CBK262900],103%,–
NC1CCN(c2ncccn2)CC1 [CBK174054],98.7%,–
CCOc1ccc(-c2ccnc(C)n2)cc1C(=O)O [CBK306505],104%,–
CN(CCOc1ccc(Cl)cc1)C(=O)COc1cc2ccccc2cc1C(=O)O [CBK296720],108%,–
O=C(O)CN1CCC(Oc2nccnc2OCc2ccc(Cl)c(Cl)c2)CC1 [CBK144443],97%,–
C=CCn1c(Cc2csc(NC(=O)c3ccc(S(C)(=O)=O)cc3)n2)n[nH]c1=S [CBK295340],97%,–
Cc1nnc(N2C(=O)c3oc4ccc(Cl)cc4c(=O)c3C2c2cccc(OCc3ccccc3)c2)s1 (stereo not shown) [CBK266870],95%,–
CC(C)[C@@H](CO)n1c(=O)[nH]c2ncc(-c3ccco3)nc21 [CBK065018],106%,–
COc1ccc(C(=O)CCN(C)CC(=O)O)cc1 [CBK287227],89.7%,–
CN(CCO)C(=O)CCn1c(C(F)F)cc2cccnc21 [CBK282805],91.9%,–
CC(C)CCCC(=O)n1ccn(-c2ccc(N(C)C)cc2)c1=O [CBK106603],92.7%,–
CO[C@@H]1CO[C@H]2[C@@H]1OC[C@@H]2NC(=O)Nc1ccc(C(C)=O)cc1 [CBK289462],106%,–
CCCc1n[nH]c(C(C)C)c1C(=O)OCC [CBK115724],98.7%,–
O=C(c1cc(S(=O)(=O)N2CCOCC2)ccc1Cl)N1CCCCC1CO (stereo not shown) [CBK304579],88.6%,–
Cn1ccnc1C(NC(=O)c1cccnc1)c1ccc(F)c(F)c1 (stereo not shown) [CBK283807],100%,–
N#CCCCN1CCC(Oc2nccnc2OCc2cccc(Cl)c2)CC1 [CBK153642],90.6%,–
COc1ccc(CNS(=O)(=O)c2cc(OCC(N)=O)c(C)cc2Cl)cc1 [CBK266495],110%,–
Cc1nccn1CCC1CCN(C(=O)CCCn2ccnc2)CC1 [CBK281988],95.3%,–
COCc1ccc(C(=O)NCC2CCCOC2)o1 (stereo not shown) [CBK282188],83.3%,–
CC(C)(C)c1ccc(C(=O)N2CCCCC2CO)cc1 (stereo not shown) [CBK073951],86.4%,–
COc1ccc(OC)c(S(=O)(=O)N2CCN(C(=O)c3cc(-c4ccncc4)nc4c(C)cc(C)cc34)CC2)c1 [CBK267778],103%,–

Structure (SMILES),"viability at 28.5 h, 10 µM","viability at 28.5 h, 10 µM (bulk resorufin, single well)"
C=Cn1ncc(CN(CCCN(C)C)Cc2ccco2)c1C [CBK283228],96.8%,–
O=C(CSc1nnc(-c2ccccn2)[nH]1)NC1CC2CCC1C2 (stereo not shown) [CBK269994],83%,–
COc1ccc(C(=O)NCC(O)CN2CCOCC2)cc1[N+](=O)[O-] (stereo not shown) [CBK265643],105%,–
Cc1nc2c(c(=O)[nH]1)CCN(CCC(C)c1ccccc1)C2 (stereo not shown) [CBK282387],81%,–
CC(C)NC(=O)N1CCN2C(=O)c3cc(-c4ccc(Cl)cc4)ccc3NC(=O)[C@H]2C1 [CBK289596],79.5%,–
COc1ccc(S(=O)(=O)N(C)CC(=O)Nc2cccc(F)c2)cc1Cl [CBK267882],90%,–
COC(=O)c1c(NC(=O)Cn2nc([N+](=O)[O-])c(Cl)c2C)sc2c1CCCC2 [CBK263047],83.9%,–
Cc1ccc(S(=O)(=O)c2ccc(C)c(S(=O)(=O)N3CCC(C)CC3)c2)cc1S(=O)(=O)N1CCC(C)CC1 [CBK261743],95.8%,–
Cc1nc(C)c(C(=O)Nc2nn(C)c3cccc(N4CCOCC4)c23)o1 [CBK306534],83.8%,–
OCCNc1nc(Nc2ccc(Cl)cc2)nc(N2CCCCC2)n1 [CBK266638],97.3%,–
Cc1cc(-c2cn3cc(C(=O)N4CCCC4)nc3c(=O)n2C)c(C)o1 [CBK307300],83.3%,–
Cc1nnc2sc(-c3ccc(NC(=S)NC(=O)c4ccc(-c5ccccc5[N+](=O)[O-])o4)cc3)nn12 [CBK266803],86.4%,–
CCc1ccccc1S(=O)(=O)N1CCOC(c2cnn(CC)c2)C1 (stereo not shown) [CBK305421],94.8%,–
CCOC(=O)N1CCN(C(=O)c2oc3ccccc3c2C)CC1 [CBK023696],92.4%,–
Cc1cccc(-n2ncc3c(NCCCN4CCOCC4)ncnc32)c1 [CBK265710],91.2%,–
COCC(=O)N1CCc2sccc2C1c1ccc(NCc2ccccc2F)cc1 (stereo not shown) [CBK286446],96.6%,–
NNC(=O)CSc1nnc2ccc(C(F)(F)F)cn12 [CBK006897],90.3%,–
O=C(NCCS(=O)(=O)c1ccccc1)c1cnc(-c2ccc(Cl)cc2)c(-c2ccco2)c1 [CBK037546],96.4%,–
O=S(=O)(Nc1ccc2[nH]ccc2c1)c1cccnc1 [CBK156811],71%,–
O=[N+]([O-])c1cccc(-c2ccc3c(c2)COC2(CCNCC2)O3)c1 [CBK060957],–,105%
Cn1c(CN2CCN(S(C)(=O)=O)CC2)nc2cc([N+](=O)[O-])ccc21 [CBK268362],98.4%,–
O=C(Cn1c(-c2ccc(F)cc2)cc2cccnc21)N1CCOCC1 [CBK285383],94.8%,–

Structure (SMILES),"viability at 28.5 h, 10 µM","viability at 28.5 h, 10 µM (bulk resorufin, single well)"
Cc1cc(C(=O)O)c2[nH]c3c(c2c1)CCCC3 [CBK028885],95.5%,–
c1ccc(Cc2nn3c(COc4ccccc4)nnc3s2)cc1 [CBK267163],88%,–
CN(C)C(=O)Cn1nc(-c2cc3c(s2)CCCC3)oc1=O [CBK283905],98%,–
Cc1cc(-c2ccc(=O)n(CCNC(=O)c3cccs3)n2)c(C)o1 [CBK284461],92.3%,–
CC(C)(C)C(=O)N1CCC(n2nc(-c3cccs3)oc2=O)CC1 [CBK282423],88%,–
CC(C)(CN1CCCC1)NC(=O)c1cc(Cl)c(Cl)cc1C(=O)O [CBK287141],89%,–
CCN(Cc1ccncc1)C(=O)NCC1CCCCC1 [CBK155132],103%,–
Oc1ccccc1/C=N/CC(O)C/N=C/c1ccccc1O [CBK261112],103%,–
CCn1cc(NC(=O)CC2CCN(Cc3cccc(C(F)(F)F)c3)CC2)cn1 [CBK286118],89.9%,–
CN(C)CCN(C)C(=O)c1cc(Br)cnc1N1CCN(C(=O)c2ccco2)CC1 [CBK076514],93.8%,–
Cc1cccc(C)c1OCC(=O)N1CCC(c2cc(C(=O)NC(C)C)c3ccccc3n2)C1 (stereo not shown) [CBK285916],112%,–
COc1cc(NC(=O)CS(=O)(=O)c2ccccc2)c(OC)cc1Cl [CBK269471],86.7%,–
Cc1c(C(=O)Nc2nccs2)nnn1-c1ccccc1 [CBK287766],83.9%,–
CNC(=O)C1(Cc2ccccc2-c2ccccc2)CCN(C(=O)Cc2ccc(C)cc2)CC1 [CBK286274],88.4%,–
Cc1nn(C)cc1-c1cncn1CCCn1ccnc1C(C)C [CBK281972],81.6%,–
CCC(C)NC(=O)Cn1cccc2cc(C3CCCNC3)nc1-2 (stereo not shown) [CBK285087],98.2%,–
CN1C(=O)COc2ccccc2C/C=C/C[C@H]2NCCC[C@H]21 [CBK292156],80.9%,–
CS(=O)(=O)c1ccc(-c2ccc(C(=O)NCc3ccccc3)cn2)cc1 [CBK158885],89.2%,–
Cc1cc(N2CCCC2)c(F)cc1CN1CCC(CO)C1 (stereo not shown) [CBK282916],93.6%,–
CCc1c(C(=O)NCCn2ccnc2C)[nH]c2ccc(F)cc12 [CBK283314],92.9%,–

# — paper PMC12040169 (PLOS Biology, 2025)
